How the values were obtained:
Format in all cases: cell-based
human A1-AR [1] = target: T1, human A1-AR (Homo sapiens, UniProt P30542); assay: c-fos-pGL3 luciferase reporter functional study in CHO-A1fos cells
T1 construct: expressed in transfected cells; host or cells: CHO-K1 (CHO-A1fos)
T1 sequence (P30542 1-326): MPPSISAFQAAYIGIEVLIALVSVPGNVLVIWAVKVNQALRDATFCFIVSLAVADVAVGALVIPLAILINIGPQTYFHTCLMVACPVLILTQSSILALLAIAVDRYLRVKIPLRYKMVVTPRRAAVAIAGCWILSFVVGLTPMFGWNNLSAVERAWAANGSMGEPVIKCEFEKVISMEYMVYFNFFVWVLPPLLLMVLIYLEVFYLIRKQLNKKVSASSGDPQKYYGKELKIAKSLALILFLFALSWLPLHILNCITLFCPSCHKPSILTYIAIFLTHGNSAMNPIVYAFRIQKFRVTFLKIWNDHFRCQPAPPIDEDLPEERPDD
Protocol: (§1) Functional studies were performed in CHO-K1 cells expressing both the human A1-AR and a c-fos-pGL3 reporter vector (CHO-A1fos cells). […] Luciferase expression was quantified using a Luclite® kit according to manufacturer's instructions. Live cell confocal imaging was carried out on CHO-A1 cells or CHO cells expressing the A1-AR tagged on the C-terminus with a green fluorescent protein (CHO-A1Tpz).

human A1-AR [2] = target: T1, human A1-AR; assay: Live cell confocal imaging of fluorescent ligand binding in CHO-A1 cells; settings: 100 nM BY630-ABEA
Protocol: as §1

[3] = target: T2, A1-AR tagged on the C-terminus with a green fluorescent protein (Homo sapiens, UniProt P30542); assay: Live cell confocal imaging in CHO cells expressing A1-AR tagged with green fluorescent protein (CHO-A1Tpz)
T2 construct: expressed in transfected cells; host or cells: CHO (CHO-A1Tpz)
T2 sequence (P30542 1-326): T1 sequence (P30542 1-326)
Protocol: as §1

## CCCn1c(=O)c2[nH]c(C3CCCC3)nc2n(CCC)c1=O [DPCPX, 8-cyclopentyl-1,3-dipropylxanthine, reference compound]
Human A1-AR [1]; 100 nM DPCPX, n=3
  effect on the response to BY630-ABEA: completely blocked the response to BY630-ABEA
Human A1-AR [2]; DPCPX 1 μM, 30 min preincubation
  effect of preincubation on BY630-ABEA membrane binding: substantially reduced

## NECA-BODIPY 630/650 [BY630-ABEA]
Human A1-AR [1]; CHO-A1fos cells, 5 h agonist stimulation, mean s.e.mean
  pEC50, stimulation of luciferase expression: 6.76±0.18
Human A1-AR [2]; CHO-A1 cells, n=3
  time after which binding of ligand to the membrane was detectable: 5 min
  time after which binding of ligand to the membrane was substantial: 30 min
[3]; 100 nM, 30′, CHO cells (A1-R-Topaz)
  specificity of ligand binding from overlaid red and green channel images (FIG. 4B): ligand binding is specific to receptors
[3]; CHO-A1Tpz cells
  co-localisation of ligand fluorescence with tagged receptor: co-localisation of ligand fluorescence at the membrane with that from the fluorescently tagged A1-AR

## XAC-BODIPY 630/650 [BODIPY-XAC]
[3]; 50 nM, 15′, CHO cells (A1-R-Topaz)
  specificity of ligand binding from overlaid red and green channel images (FIG. 4A): ligand binding is specific to receptors

— patent publication US8349571B2, “High content screening” (Cellaura Technologies Limited, priority 2004, dated 2013)
